Patent US20240342161A1, “BISBENZYLISOQUINOLINES AS CONDITIONING AGENTS FOR IMMUNE THERAPY” (priority 2023, published 2024)
Several values for one entry are separate records, joined by “and”; a condition that tells them apart may be missing. Equal values may be shown once.

Experiments:
P-glycoprotein (P-gp) = P-glycoprotein (P-gp) (Homo sapiens, UniProt P08183); details: cited from earlier work
hERG = hERG (Homo sapiens, UniProt Q12809); assay: hERG inhibition, IonWorks HT electrophysiology in CHO cells stably transfected with hERG
[1] = system: CML colonies, secondary clonal growth; assay: Replating assay (secondary clonal growth of CML colonies); type: cell-based, human; details: colonies from original cultures with ES-3000 @ 10 μM; 24 wells
β-catenin = β-catenin protein level in K562 cell extracts by western blot; type: cell-based, human
Experimental: The second portion was to quantitate the levels of β-catenin protein by western blot. TET's ability in an in vitro assay to reduce β-catenin expression was tested in human erythroleukemic (K562) cells. Testing was conducted by Alamo Laboratories, San Antonia, TX.
Briefly, the method to quantitate β-catenin protein by western blot was as follows: Extracts of K562 cells (untreated and treated with various concentrations of tetrandrine) were concentrated to 0.4 ml using Centricon-3 column to yield a protein concentration of approximately 2 mg/ml. Samples were mixed with 5× Laemmli buffer and loaded on 8-16% Tris-Glycine gradient gel, then polyacrylamide gel electrophoresis (PAGE) was run at 85 volts for 100 minutes at 6° C. and proteins were transferred on PVDF membrane at 70 Volts for 85 minutes at 8° C. Membrane was blocked with 5% milk in Tris-buffered Saline containing 0.1% TW-20 (TBST). Membrane was incubated with primary antibody for 18 hours at 4° C. followed by 3 washes, 5 minutes each, with TBST and incubated with secondary antibody in TBST for 2 hours at 25° C. The membrane was washed again with TBST as described above and incubated with ECL-2 substrate for 5 minutes and scanned on Kodak Image Station. After scan, blot was stripped of primary and secondary antibodies and re-probed with anti-beta Actin antibody as described above. Protein bands in WB images were quantitated using Molecular Imaging software pack MIS-4.0 software and tabulated in Excel spreadsheet.

bcr-abl = assay: qPCR assay for bcr-abl in plucked CML colonies; type: cell-based, human; details: Secondary colonies, 10 μM, number of colonies; listed as Tetrandrine
Experimental: To determine whether a colony was normal (bcr-abl negative and abl positive) or diseased (bcr-abl and abl positive), a TaqMan®-based qPCR test was used. In order to score the colonies positive or negative, the following scoring strategy was performed. All colonies were assayed in duplicate for each target. If a singleton reaction yielded a Ct then the reaction scored a 1. If no Ct was recorded, a score of 0 was given. From here, we used a logic test to score the colonies into four different categories: bcr-abl and abl, abl only, bcr-abl only or both negative. In order to be placed in a category, a colony must score a 1 in both reactions. However, if a colony only scored a 1 for one out of the two reactions, this colony was removed from the analysis. […] Alternatively, if a colony scored a 1 in only both of the bcr-abl reactions or a 1 in only both the abl reactions, the colony was placed in the bcr-abl only or abl only category, respectively. If the colony scored a 0 for both targets (bcr-abl and abl) then the colony was placed in the both negative category.
In total 48 primary colonies and 31 secondary replated colonies were assessed for bcr-abl and abl using qPCR. […] Thirteen secondary colonies treated with Tetrandrine at 10 μM were assessed.

CAMKII gamma = target: T1, CAMKII gamma (Homo sapiens, UniProt Q13555); assay: CAMKII gamma kinase activity (ADP Glo); type: biochemical; details: for units: duplicate reactions
T1 construct: purchased Promega V3531
Experimental: An enzymatic study was conducted to evaluate the inhibition of CAMKII gamma by ES-3000 (Tetrandrine). CAMKII gamma kinase activity was measured using […] purchased from Promega following the Promega protocol. CAMKII enzyme system purchased from Promega (V3531). ADP Glo was used for detection. Assay optimized for linearity of protein and time. Conditions for inhibitor screening 25 ng CAMKII, 20 min. incubations, inhibitor or DMSO (5%) at RT in 20 uL total volume. Inhibitor, ATP (10 or 50 μM), substrates and buffer added to tubes and reactions started with enzyme. […] Reactions terminated at 20 min. by adding ADP Glo reaction following manufactures instructions. All reactions were done in duplicate. Calculations of percent (%) inhibition determined by dividing the mean activity at each condition by the mean of the DMSO control times 100.

T1 sequence (Q13555 whole entry): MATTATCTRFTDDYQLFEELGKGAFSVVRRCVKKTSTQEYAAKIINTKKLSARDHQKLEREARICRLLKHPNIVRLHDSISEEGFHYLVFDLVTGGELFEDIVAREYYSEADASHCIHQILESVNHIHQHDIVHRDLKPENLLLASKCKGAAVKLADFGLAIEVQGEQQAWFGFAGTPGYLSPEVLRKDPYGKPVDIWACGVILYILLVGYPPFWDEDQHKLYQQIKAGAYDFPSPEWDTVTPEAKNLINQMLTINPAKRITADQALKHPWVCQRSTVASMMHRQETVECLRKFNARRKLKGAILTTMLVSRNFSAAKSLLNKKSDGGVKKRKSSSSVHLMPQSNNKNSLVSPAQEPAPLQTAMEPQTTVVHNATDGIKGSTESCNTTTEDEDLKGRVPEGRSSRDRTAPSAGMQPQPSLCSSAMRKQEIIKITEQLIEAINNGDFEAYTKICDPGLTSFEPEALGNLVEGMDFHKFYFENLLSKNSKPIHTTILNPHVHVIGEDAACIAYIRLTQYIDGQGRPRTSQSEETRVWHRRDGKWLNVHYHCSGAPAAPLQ
Chain of P-glycoprotein (P-gp) (P08183 whole entry): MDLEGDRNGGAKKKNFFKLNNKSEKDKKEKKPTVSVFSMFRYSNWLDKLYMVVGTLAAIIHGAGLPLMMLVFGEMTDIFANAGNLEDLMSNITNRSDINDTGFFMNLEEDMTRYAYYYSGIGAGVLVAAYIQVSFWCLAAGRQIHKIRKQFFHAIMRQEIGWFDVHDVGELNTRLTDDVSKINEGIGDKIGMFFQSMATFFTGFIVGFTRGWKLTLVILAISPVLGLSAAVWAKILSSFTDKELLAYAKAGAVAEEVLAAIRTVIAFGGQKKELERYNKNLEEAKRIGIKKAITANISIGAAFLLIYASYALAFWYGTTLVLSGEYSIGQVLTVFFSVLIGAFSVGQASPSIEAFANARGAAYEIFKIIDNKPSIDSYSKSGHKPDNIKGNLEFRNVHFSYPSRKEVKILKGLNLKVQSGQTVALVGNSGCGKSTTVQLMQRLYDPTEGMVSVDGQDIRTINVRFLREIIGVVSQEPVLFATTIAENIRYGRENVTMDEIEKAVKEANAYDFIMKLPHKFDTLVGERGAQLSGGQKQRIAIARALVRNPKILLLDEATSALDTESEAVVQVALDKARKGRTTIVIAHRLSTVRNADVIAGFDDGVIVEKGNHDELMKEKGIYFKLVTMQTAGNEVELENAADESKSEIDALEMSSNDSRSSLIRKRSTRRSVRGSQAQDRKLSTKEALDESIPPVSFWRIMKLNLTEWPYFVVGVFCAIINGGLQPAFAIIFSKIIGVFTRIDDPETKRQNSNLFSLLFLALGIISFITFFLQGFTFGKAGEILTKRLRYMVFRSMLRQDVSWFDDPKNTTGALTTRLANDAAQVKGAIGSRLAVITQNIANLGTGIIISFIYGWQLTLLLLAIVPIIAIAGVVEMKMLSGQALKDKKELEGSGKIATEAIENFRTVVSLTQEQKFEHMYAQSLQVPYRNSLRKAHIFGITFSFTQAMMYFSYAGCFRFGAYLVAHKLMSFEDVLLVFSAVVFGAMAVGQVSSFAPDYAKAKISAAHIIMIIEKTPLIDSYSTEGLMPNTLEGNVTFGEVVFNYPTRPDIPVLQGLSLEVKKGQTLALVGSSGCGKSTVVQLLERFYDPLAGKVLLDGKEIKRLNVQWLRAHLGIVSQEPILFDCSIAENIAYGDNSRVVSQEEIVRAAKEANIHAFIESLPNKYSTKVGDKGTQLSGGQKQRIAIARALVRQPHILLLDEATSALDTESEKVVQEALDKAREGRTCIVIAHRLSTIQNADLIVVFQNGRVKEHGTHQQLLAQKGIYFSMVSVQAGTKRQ
Chain of hERG (Q12809 whole entry): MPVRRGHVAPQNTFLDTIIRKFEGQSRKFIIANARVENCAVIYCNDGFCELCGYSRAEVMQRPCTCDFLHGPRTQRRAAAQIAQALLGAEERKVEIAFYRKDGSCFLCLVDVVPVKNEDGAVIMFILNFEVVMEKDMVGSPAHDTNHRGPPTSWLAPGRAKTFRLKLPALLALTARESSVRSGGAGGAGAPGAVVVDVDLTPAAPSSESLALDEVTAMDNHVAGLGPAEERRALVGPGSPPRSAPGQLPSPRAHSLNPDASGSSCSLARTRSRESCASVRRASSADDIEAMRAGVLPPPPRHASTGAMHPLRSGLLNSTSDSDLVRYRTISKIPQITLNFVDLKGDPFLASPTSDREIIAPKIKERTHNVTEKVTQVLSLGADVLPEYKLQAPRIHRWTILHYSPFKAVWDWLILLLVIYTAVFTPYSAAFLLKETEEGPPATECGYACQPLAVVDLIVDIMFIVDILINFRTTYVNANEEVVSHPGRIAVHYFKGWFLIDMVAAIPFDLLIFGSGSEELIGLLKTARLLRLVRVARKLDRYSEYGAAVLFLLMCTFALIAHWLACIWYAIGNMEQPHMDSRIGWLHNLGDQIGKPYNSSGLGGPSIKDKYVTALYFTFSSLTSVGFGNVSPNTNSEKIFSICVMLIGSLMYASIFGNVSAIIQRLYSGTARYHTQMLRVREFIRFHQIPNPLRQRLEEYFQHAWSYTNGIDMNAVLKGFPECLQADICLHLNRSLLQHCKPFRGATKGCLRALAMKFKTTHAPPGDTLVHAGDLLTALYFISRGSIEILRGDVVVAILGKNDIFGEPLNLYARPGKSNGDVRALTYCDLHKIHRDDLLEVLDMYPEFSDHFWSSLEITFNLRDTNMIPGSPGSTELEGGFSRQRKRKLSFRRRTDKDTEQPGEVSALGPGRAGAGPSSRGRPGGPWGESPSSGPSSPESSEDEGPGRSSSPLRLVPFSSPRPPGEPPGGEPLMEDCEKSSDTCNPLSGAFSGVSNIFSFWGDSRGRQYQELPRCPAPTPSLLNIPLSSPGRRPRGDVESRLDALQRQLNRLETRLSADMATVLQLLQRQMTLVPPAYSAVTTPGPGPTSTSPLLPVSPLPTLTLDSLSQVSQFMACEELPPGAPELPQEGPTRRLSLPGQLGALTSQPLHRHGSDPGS

For “6,6′,7,12-tetramethoxy-2,2′-dimethyl-berbaman [ES-3000]”, the “substrate of P-gp” value (P-glycoprotein (P-gp)) is given as “not a substrate of P-gp”, the “function of P-gp” value (P-glycoprotein (P-gp); without altering the protein expression level of Pgp) is given as “directly inhibits the function of P-gp in a dose-dependent manner” and the “plasma levels above which QT prolongation might be expected in subjects” value (hERG; interpretation from hERG IC50 and protein binding) is given as “above 249 ng/mL”. The “safety for cardiac conduction-related toxicity (hERG IC50 versus human Cmax)” value (hERG; utilizing Cmax from previous human clinical experience) was 13 fold, the “Replating colony count per well” value [1] was 1 and the β-catenin band (β-catenin; K562 cells treated with 0 to 10 uM) was “evident”. For the same substance, the “convincing β-catenin band” value (β-catenin; K562 cells treated with 20 and 40 uM) was “absent”, the “β-catenin level, result in words” value (β-catenin; K562 cells, 0 to 40 uM, 24 hours) was “lowers the β-catenin level in K562 cells in a dose dependent manner” and the “bcr-abl and abl colonies” value (bcr-abl) was “No colonies scored positive for bcr-abl and abl”. The mean (CAMKII gamma; 10 uM ATP, inhibitor 30 uM) was 3.09, the units (CAMKII gamma; 10 uM ATP, inhibitor 30 uM) was 2.75 units and 3.43 units and the mean (CAMKII gamma; 10 uM ATP, inhibitor 100 uM) was 2.87. For the same substance, the units (CAMKII gamma; 10 uM ATP, inhibitor 100 uM) was 2.5 units and 3.24 units, the mean (CAMKII gamma; 10 uM ATP, inhibitor 250 uM) was 0.41 and the units (CAMKII gamma; 10 uM ATP, inhibitor 250 uM) was 0.34 units and 0.48 units. For the same substance, the mean (CAMKII gamma; 50 uM ATP, inhibitor 30 uM) was 10.55, the units (CAMKII gamma; 50 uM ATP, inhibitor 30 uM) was 10.4 units and 10.7 units and the mean (CAMKII gamma; 50 uM ATP, inhibitor 100 uM) was 7.955. The units (CAMKII gamma; 50 uM ATP, inhibitor 100 uM) was 8.81 units and 7.1 units and the “CAMKII gamma kinase activity inhibition, result in words” value (CAMKII gamma; 30-250 uM, 10 or 50 μM ATP) was “inhibited CAMKII gamma kinase activity in a dose dependent manner”.
